Test results reported in patent US6525001B1, “Substituted pyrimidine and pyridine herbicides” (Mid-American Commercialization Corporation, priority 1997, dated 2003).

Experiments:
Assay in all cases: Test B pre-/postemergence
Type in all cases: in vivo
Parameters in all cases: key: 0 is no effect; 10 is complete control
corn (Zea mays) = tested on: corn (Zea mays)
Method in brief: (§1)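 Response scores run from 0, meaning no effect, to 10, meaning complete control, assigned by eye relative to controls twelve to sixteen days after spraying. Treatment was both preemergence on planted seed and postemergence on plants at the 1- to 4-leaf stage.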

[1] = tested on: crabgrass (Digitaria sanguinalis)
Method in brief: as §1

[2] = tested on: wheat (Triticum aestivum)
Method in brief: as §1

[3] = tested on: broadleaf signalgrass (Brachiaria decumbens)
Method in brief: as §1

[4] = tested on: velvetleaf (Abutilon theophrasti)
Method in brief: as §1

[5] = tested on: sugar beet (Beta vulgaris)
Method in brief: as §1

[6] = tested on: giant foxtail (Setaria faberii)
Method in brief: as §1

soybean (Glycine max) = tested on: soybean (Glycine max)
Method in brief: as §1

[7] = tested on: cocklebur (Xanthium strumarium)
Method in brief: as §1

[8] = tested on: pigweed (Amaranthus retroflexus)
Method in brief: as §1

[9] = tested on: bedstraw (Galium aparine)
Method in brief: as §1

[10] = tested on: blackgrass (Alopecurus myosuroides)
Method in brief: as §1

rape (Brassica napus) = tested on: rape (Brassica napus)
Method in brief: as §1

[11] = tested on: momingglory (Ipomoea hederacea)
Method in brief: as §1

[12] = Preemergence, Rate 62 g/ha, scale of 0 to 10

Cc1cnc(-c2ccc(C(F)(F)F)cc2)nc1C(=O)c1cccc(C(F)(F)F)c1 [Compound 73]
Plant response rating, Corn (corn (Zea mays); [12]): 1
Corn plant response rating (corn (Zea mays); Rate 62 g/ha, Postemergence): 2
Corn plant response rating (corn (Zea mays); Rate 125 g/ha, Postemergence): 3
Plant response rating, Corn (corn (Zea mays); Rate 125 g/ha, Preemergence): 1
Plant response rating, Corn (corn (Zea mays); Rate 250 g/ha, Postemergence): 3
Plant response rating, Corn (corn (Zea mays); Rate 250 g/ha, Preemergence): 2
Plant response rating, Corn (corn (Zea mays); Rate 500 g/ha, Postemergence): 3
Plant response rating, Corn (corn (Zea mays); Rate 500 g/ha, Preemergence): 2
Plant response rating, Crabgrass [1, 12]: 10
Crabgrass plant response rating ([1]; Rate 62 g/ha, Postemergence): 7
Crabgrass plant response rating ([1]; Rate 125 g/ha, Postemergence): 9
Plant response rating, Crabgrass ([1]; Rate 125 g/ha, Preemergence): 10
Plant response rating, Crabgrass ([1]; Rate 250 g/ha, Postemergence): 9
Plant response rating, Crabgrass ([1]; Rate 250 g/ha, Preemergence): 10
Plant response rating, Crabgrass ([1]; Rate 500 g/ha, Postemergence): 9
Plant response rating, Crabgrass ([1]; Rate 500 g/ha, Preemergence): 10
Plant response rating, Wheat [2, 12]: 2
Wheat plant response rating ([2]; Rate 62 g/ha, Postemergence): 4
Wheat plant response rating ([2]; Rate 125 g/ha, Postemergence): 4
Plant response rating, Wheat ([2]; Rate 125 g/ha, Preemergence): 4
Plant response rating, Wheat ([2]; Rate 250 g/ha, Postemergence): 5
Plant response rating, Wheat ([2]; Rate 250 g/ha, Preemergence): 7
Plant response rating, Wheat ([2]; Rate 500 g/ha, Postemergence): 6
Plant response rating, Wheat ([2]; Rate 500 g/ha, Preemergence): 9
B. signalgrass plant response rating ([3]; Rate 62 g/ha, Postemergence): 8
B. signalgrass plant response rating ([3]; Rate 62 g/ha, Preemergence): 9
B. signalgrass plant response rating ([3]; Rate 125 g/ha, Postemergence): 9
Plant response rating, B. signalgrass ([3]; Rate 125 g/ha, Preemergence): 9
Plant response rating, B. signalgrass ([3]; Rate 250 g/ha, Postemergence): 9
Plant response rating, B. signalgrass ([3]; Rate 250 g/ha, Preemergence): 9
Plant response rating, B. signalgrass ([3]; Rate 500 g/ha, Postemergence): 8
Plant response rating, B. signalgrass ([3]; Rate 500 g/ha, Preemergence): 10
Plant response rating, Velvetleaf [4, 12]: 2
Velvetleaf plant response rating ([4]; Rate 62 g/ha, Postemergence): 9
Velvetleaf plant response rating ([4]; Rate 125 g/ha, Postemergence): 9
Plant response rating, Velvetleaf ([4]; Rate 125 g/ha, Preemergence): 4
Plant response rating, Velvetleaf ([4]; Rate 250 g/ha, Postemergence): 9
Plant response rating, Velvetleaf ([4]; Rate 250 g/ha, Preemergence): 7
Plant response rating, Velvetleaf ([4]; Rate 500 g/ha, Postemergence): 10
Plant response rating, Velvetleaf ([4]; Rate 500 g/ha, Preemergence): 8
Plant response rating, Sugarbeets [5, 12]: 9
Sugarbeets plant response rating ([5]; Rate 62 g/ha, Postemergence): 10
Sugarbeets plant response rating ([5]; Rate 125 g/ha, Postemergence): 10
Plant response rating, Sugarbeets ([5]; Rate 125 g/ha, Preemergence): 9
Plant response rating, Sugarbeets ([5]; Rate 250 g/ha, Postemergence): 9
Plant response rating, Sugarbeets ([5]; Rate 250 g/ha, Preemergence): 10
Plant response rating, Sugarbeets ([5]; Rate 500 g/ha, Postemergence): 9
Plant response rating, Sugarbeets ([5]; Rate 500 g/ha, Preemergence): 10
Plant response rating, Giant foxtail [6, 12]: 10
Giant foxtail plant response rating ([6]; Rate 62 g/ha, Postemergence): 6
Giant foxtail plant response rating ([6]; Rate 125 g/ha, Postemergence): 8
Plant response rating, Giant foxtail ([6]; Rate 125 g/ha, Preemergence): 10
Plant response rating, Giant foxtail ([6]; Rate 250 g/ha, Postemergence): 9
Plant response rating, Giant foxtail ([6]; Rate 250 g/ha, Preemergence): 10
Plant response rating, Giant foxtail ([6]; Rate 500 g/ha, Postemergence): 9
Plant response rating, Giant foxtail ([6]; Rate 500 g/ha, Preemergence): 10
Plant response rating, Soybean (soybean (Glycine max); [12]): 0
Soybean plant response rating (soybean (Glycine max); Rate 62 g/ha, Postemergence): 8
Soybean plant response rating (soybean (Glycine max); Rate 125 g/ha, Postemergence): 9
Plant response rating, Soybean (soybean (Glycine max); Rate 125 g/ha, Preemergence): 1
Plant response rating, Soybean (soybean (Glycine max); Rate 250 g/ha, Postemergence): 9
Plant response rating, Soybean (soybean (Glycine max); Rate 250 g/ha, Preemergence): 1
Plant response rating, Soybean (soybean (Glycine max); Rate 500 g/ha, Postemergence): 6
Plant response rating, Soybean (soybean (Glycine max); Rate 500 g/ha, Preemergence): 2
Plant response rating, Cocklebur [7, 12]: 0
Cocklebur plant response rating ([7]; Rate 62 g/ha, Postemergence): 9
Cocklebur plant response rating ([7]; Rate 125 g/ha, Postemergence): 9
Plant response rating, Cocklebur ([7]; Rate 125 g/ha, Preemergence): 1
Plant response rating, Cocklebur ([7]; Rate 250 g/ha, Postemergence): 9
Plant response rating, Cocklebur ([7]; Rate 250 g/ha, Preemergence): 7
Plant response rating, Cocklebur ([7]; Rate 500 g/ha, Postemergence): 8
Plant response rating, Redroot pigweed [8, 12]: 9
Redroot pigweed plant response rating ([8]; Rate 62 g/ha, Postemergence): 9
Redroot pigweed plant response rating ([8]; Rate 125 g/ha, Postemergence): 9
Plant response rating, Redroot pigweed ([8]; Rate 125 g/ha, Preemergence): 10
Plant response rating, Redroot pigweed ([8]; Rate 250 g/ha, Postemergence): 10
Plant response rating, Redroot pigweed ([8]; Rate 250 g/ha, Preemergence): 10
Plant response rating, Redroot pigweed ([8]; Rate 500 g/ha, Postemergence): 10
Plant response rating, Redroot pigweed ([8]; Rate 500 g/ha, Preemergence): 10
Plant response rating, Bedstraw [9, 12]: 2
Bedstraw plant response rating ([9]; Rate 62 g/ha, Postemergence): 9
Bedstraw plant response rating ([9]; Rate 125 g/ha, Postemergence): 9
Plant response rating, Bedstraw ([9]; Rate 125 g/ha, Preemergence): 8
Plant response rating, Bedstraw ([9]; Rate 250 g/ha, Postemergence): 9
Plant response rating, Bedstraw ([9]; Rate 250 g/ha, Preemergence): 9
Plant response rating, Bedstraw ([9]; Rate 500 g/ha, Postemergence): 9
Plant response rating, Bedstraw ([9]; Rate 500 g/ha, Preemergence): 10
Plant response rating, Blackgrass [10, 12]: 8
Blackgrass plant response rating ([10]; Rate 62 g/ha, Postemergence): 7
Blackgrass plant response rating ([10]; Rate 125 g/ha, Postemergence): 7
Plant response rating, Blackgrass ([10]; Rate 125 g/ha, Preemergence): 9
Plant response rating, Blackgrass ([10]; Rate 250 g/ha, Postemergence): 9
Plant response rating, Blackgrass ([10]; Rate 250 g/ha, Preemergence): 10
Plant response rating, Blackgrass ([10]; Rate 500 g/ha, Postemergence): 9
Plant response rating, Blackgrass ([10]; Rate 500 g/ha, Preemergence): 10
Plant response rating, Rape (rape (Brassica napus); [12]): 2
Rape plant response rating (rape (Brassica napus); Rate 62 g/ha, Postemergence): 10
Rape plant response rating (rape (Brassica napus); Rate 125 g/ha, Postemergence): 10
Plant response rating, Rape (rape (Brassica napus); Rate 125 g/ha, Preemergence): 6
Plant response rating, Rape (rape (Brassica napus); Rate 250 g/ha, Postemergence): 10
Plant response rating, Rape (rape (Brassica napus); Rate 250 g/ha, Preemergence): 6
Plant response rating, Rape (rape (Brassica napus); Rate 500 g/ha, Postemergence): 10
Plant response rating, Rape (rape (Brassica napus); Rate 500 g/ha, Preemergence): 10
Plant response rating, Morningglory [11, 12]: 3
Morningglory plant response rating ([11]; Rate 62 g/ha, Postemergence): 9
Morningglory plant response rating ([11]; Rate 125 g/ha, Postemergence): 9
Plant response rating, Morningglory ([11]; Rate 125 g/ha, Preemergence): 9
Plant response rating, Morningglory ([11]; Rate 250 g/ha, Postemergence): 9
Plant response rating, Morningglory ([11]; Rate 250 g/ha, Preemergence): 9
Plant response rating, Morningglory ([11]; Rate 500 g/ha, Postemergence): 10
Plant response rating, Morningglory ([11]; Rate 500 g/ha, Preemergence): 10
